# Biological target: T1, Human NK1 Receptor (Homo sapiens, UniProt P25103)
# T1 construct: endogenous in cells; host or cells: Human lymphoma IM9 cells (whole cells)
# Assay: In Vitro Human NK1 Receptor Binding Assay ([125I]Bolton-Hunter substance P displacement, IM9 cells)
# Details: Human lymphoma IM9 cells, [125I]Bolton-Hunter substance P; Table 3, array-synthesis products; read-out: IC50 (nM) hNK1
# Protocol: They have been evaluated in an NK1-receptor binding assay which is described below.
# Human lymphoma IM9 cells were grown in RPMI 1640 culture medium supplemented with 10% fetal calf serum and 2 mM glutamine and maintained under an atmosphere of 5% CO2. Cells were passaged every 3-4 days by reseeding to a concentration of 4-8×10^6/40 ml per 175 cm^2 flask. Cells were harvested for experiments by centrifugation at 1000 g for 3 min. Pelleted cells were washed once by resuspension into assay buffer (50 mM Tris HCl pH 7.4, 3 mM MnCl2, 0.02% BSA, […] bacitracin, […] chymostatin, 2 mM phosphoramidon, […] leupeptin) and repeating the centrifugation step before resuspending at a concentration of 2.5×10^6 cells/mL assay buffer. Cells ([…]) were incubated with [^125I]Bolton-Hunter substance P (0.05-0.1 nM) in the presence and absence of varying concentrations of test compounds for 50 min at 21° C. Non-specific binding (10% of the total binding observed under these conditions) was defined by […] [Sar^9, Met(02)^11] substance P. Reactions were terminated by rapid filtration under vacuum onto GF\C filters presoaked in 0.2% PEI for 1-2 h, using a Brandel cell harvester. Filters were washed with 6×1 ml ice-cold Tris HCl (50 mM, pH 7.4) and radioactivity bound determined using a gamma couter. Results were analyzed using iterative curve fitting procedures in RS1 or Graphpad Inplot.
# T1 sequence (P25103 whole entry): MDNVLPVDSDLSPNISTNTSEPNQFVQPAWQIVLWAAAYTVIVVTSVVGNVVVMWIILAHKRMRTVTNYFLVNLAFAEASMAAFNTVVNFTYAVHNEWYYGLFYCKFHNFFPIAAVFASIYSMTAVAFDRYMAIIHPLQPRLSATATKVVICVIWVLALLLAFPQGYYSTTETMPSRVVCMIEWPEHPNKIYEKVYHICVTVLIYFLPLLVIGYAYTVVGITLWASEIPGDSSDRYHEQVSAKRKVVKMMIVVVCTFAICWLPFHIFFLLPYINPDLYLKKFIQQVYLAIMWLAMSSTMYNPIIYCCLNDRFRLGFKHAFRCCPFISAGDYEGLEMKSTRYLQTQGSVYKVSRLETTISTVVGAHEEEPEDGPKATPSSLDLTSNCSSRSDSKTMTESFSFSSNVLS
row,IC50 [nM],Molecule
1,70,"O=C(NCc1cc(Cl)sc1Cl)C(Cc1c[nH]c2ccccc12)NCc1cc2ccccc2o1 (stereo not drawn) [Example 215, 2-[(Benzofuran-2-ylmethyl)-amino]-N-(2,5-dichloro-thiophen-3-ylmethyl)-3-(1H-indol-3-yl)-propionamide]"
2,43,"COC(=O)C(NC(=O)C(Cc1c[nH]c2ccccc12)NCc1cc2ccccc2o1)c1ccccc1 (stereo not drawn) [Example 304, [2-[(Benzofuran-2-ylmethyl)-amino]-3-(1H-indol-3-yl)-propionylamino]-phenyl-acetic acid methyl ester]"
3,92,"CCC(NC(=O)C(Cc1c[nH]c2ccccc12)NCc1cc2ccccc2o1)c1cccs1 (stereo not drawn) [Example 196, 2-[(Benzofuran-2-ylmethyl)-amino]-3-(1H-indol-3-yl)-N-(1-thiophen-2-yl-propyl)-propionamide]"
4,790,"O=C(NCc1cccnc1)C(Cc1c[nH]c2ccccc12)NCc1cc2ccccc2o1 (stereo not drawn) [Example 231, 2-[(Benzofuran-2-ylmethyl)-amino]-3-(1H-indol-3-yl)-N-pyridin-3-ylmethyl-propionamide]"
5,> 10000,"O=C(NCCN1CCNCC1)C(Cc1c[nH]c2ccccc12)NCc1cc2ccccc2o1 (stereo not drawn) [Example 193, 2-[(Benzofuran-2-ylmethyl)-amino]-3-(1H-indol-3-yl)-N-(2-piperazin-1-yl-ethyl)-propionamide]"
6,328,"CC(C)(NC(=O)C(Cc1c[nH]c2ccccc12)NCc1cc2ccccc2o1)c1ccccc1 (stereo not drawn) [Example 265, 2-[(Benzofuran-2-ylmethyl)-amino]-3-(1H-indol-3-yl)-N-(1-methyl-1-phenyl-ethyl)-propionamide]"
7,182,"CC(NC(=O)C(Cc1c[nH]c2ccccc12)NCc1cc2ccccc2o1)c1cccc(N(C)C)c1 (stereo not drawn) [Example 227, 2-[(Benzofuran-2-ylmethyl)-amino]-N-[1-(3-dimethylamino-phenyl)-ethyl]-3-(1H-indol-3-yl)-propionamide]"
8,130,"COc1ccc(CNC(=O)C(Cc2c[nH]c3ccccc23)NCc2cc3ccccc3o2)cc1 (stereo not drawn) [Example 199, 2-[(Benzofuran-2-ylmethyl)-amino]-3-(1H-indol-3-yl)-N-(4-methoxy-benzyl)-propionamide]"
9,> 10000,"CN1CCCC1CCNC(=O)C(Cc1c[nH]c2ccccc12)NCc1cc2ccccc2o1 (stereo not drawn) [Example 198, 2-[(Benzofuran-2-ylmethyl)-amino]-3-(1H-indol-3-yl)-N-[2-(1-methyl-pyrrolidin-2-yl)-ethyl]-propionamide]"
10,129,"O=C(NCCc1ccco1)C(Cc1c[nH]c2ccccc12)NCc1cc2ccccc2o1 (stereo not drawn) [Example 251, 2-[(Benzofuran-2-ylmethyl)-amino]-N-(2-furan-2-yl-ethyl)-3-(1H-indol-3-yl)-propionamide]"

# Same assay, conditions: Table 4; [125I]Bolton-Hunter substance P displacement, human IM9 cells; read-out: IC50 (nM) hNK1
row,IC50 [nM],Molecule
1,3180,"CC(NC(=O)C(C)(Cc1c[nH]c2ccccc12)NCc1ccccc1OCc1ccccn1)c1ccccc1 (stereo not drawn) [compound 323, 3-(1H-Indol-3-yl)-2-methyl-N-(1-phenyl-ethyl)-2-[2-(pyridin-2-ylmethoxy)-benzylamino]-propionamide]"
2,> 10000,"CC(NC(=O)C(C)(Cc1c[nH]c2ccccc12)NCc1c2ccccc2cc2ccccc12)c1ccccc1 (stereo not drawn) [compound 346, 2-[(Anthracen-9-ylmethyl)-amino]-3-(1H-indol-3-yl)-2-methyl-N-(1-phenyl-ethyl)-propionamide]"
3,2210,"CC=C(C)CCC=C(C)CNC(C)(Cc1c[nH]c2ccccc12)C(=O)NC(C)c1ccccc1 (stereo not drawn) [compound 352, 2-(2,6-Dimethyl-octa-2,6-dienylamino)-3-(1H-indol-3-yl)-2-methyl-N-(1-phenyl-ethyl)-propionamide]"

row,Molecule,IC50 [nM]
1,3-(1H-Indol-3-yl)-2-methyl-N-(1-phenyl-ethyl)-2-[4-(4-phenyl-piperidin-1-yl)-benzylamino]-propionamide [compound 334],> 10000

# Same assay, conditions: Table 5; [125I]Bolton-Hunter substance P displacement, human IM9 cells; read-out: IC50 (nM) hNK1
row,IC50 [nM],Molecule
1,> 10000,CC(NC(=O)C(Cc1c[nH]c2ccccc12)NCc1coc2ccccc2c1=O)c1ccccc1 (stereo not drawn) [compound 371]
2,2570,CC=C(C)CCC=C(C)CNC(Cc1c[nH]c2ccccc12)C(=O)NC(C)c1ccccc1 (stereo not drawn) [compound 389]
3,39,CC(NC(=O)C(Cc1c[nH]c2ccccc12)NCc1cccc(F)c1)c1ccccc1 (stereo not drawn) [compound 401]
4,158,CC(NC(=O)C(Cc1c[nH]c2ccccc12)NCc1ccc2ccccc2c1)c1ccccc1 (stereo not drawn) [compound 394]
5,140,CC(NC(=O)C(Cc1c[nH]c2ccccc12)NCc1cc(F)cc(F)c1)c1ccccc1 (stereo not drawn) [compound 399]
6,> 10000,COc1ccc(CNC(Cc2c[nH]c3ccccc23)C(=O)NC(C)c2ccccc2)cc1OC (stereo not drawn) [compound 397]
7,429,CC(NC(=O)C(Cc1c[nH]c2ccccc12)NCc1ccco1)c1ccccc1 (stereo not drawn) [compound 405]
8,450,CNS(=O)(=O)c1cc(Cl)ccc1CNC(Cc1c[nH]c2ccccc12)C(=O)NC(C)c1ccccc1 (stereo not drawn) [compound 369]

# Same assay, conditions: human NK1 receptor, IM9 cells, [125I]Bolton-Hunter substance P; read-out: IC50 (nM) hNK1
row,IC50 [nM],Molecule
1,179,"CC(Cc1c[nH]c2ccccc12)(NCc1cc2ccccc2o1)C(=O)NCc1cc(C(F)(F)F)cc(C(F)(F)F)c1 (stereo not drawn) [compound 51, 2-[(Benzofuran-2-ylmethyl)-amino]-N-(3,5-bis-trifluoromethyl-benzyl)-3-(1H-indol-3-yl)-2-methyl-propionamide]"
2,43,"Cc1cccc(CNC(=O)C(C)(Cc2c[nH]c3ccccc23)NCc2cc3ccccc3o2)c1 (stereo not drawn) [compound 129, 2-[(Benzofuran-2-ylmethyl)-amino]-3-(1H-indol-3-yl)-2-methyl-N-(3-methyl-benzyl)-propionamide]"
3,6420,"CC(Cc1c[nH]c2ccccc12)(NCc1cc2ccccc2o1)C(=O)NCc1c(N)cccc1F (stereo not drawn) [compound 48, N-(2-Amino-6-fluoro-benzyl)-2-[(benzofuran-2-ylmethyl)-amino]-3-(1H-indol-3-yl)-2-methyl-propionamide]"
4,834,"Cc1cccc(CNC(=O)C(C)(Cc2c[nH]c3ccccc23)NCc2cc3ccccc3o2)c1C (stereo not drawn) [compound 54, 2-[(Benzofuran-2-ylmethyl)-amino]-N-(2,3-dimethyl-benzyl)-3-(1H-indol-3-yl)-2-methyl-propionamide]"
5,913,"CC(Cc1c[nH]c2ccccc12)(NCc1cc2ccccc2o1)C(=O)NCCc1ccccn1 (stereo not drawn) [compound 45, 2-[(Benzofuran-2-ylmethyl)-amino]-3-(1H-indol-3-yl)-2-methyl-N-(2-pyridin-2-yl-ethyl)-propionamide]"
6,> 10000,"CC1CCC(C)N1CCCCNC(=O)C(C)(Cc1c[nH]c2ccccc12)NCc1cc2ccccc2o1 (stereo not drawn) [compound 94, 2-[(Benzofuran-2-ylmethyl)-amino]-N-[4-(2,5-dimethyl-pyrrolidin-1-yl)-butyl]-3-(1H-indol-3-yl)-2-methyl-propionamide]"
7,700,"CC(Cc1c[nH]c2ccccc12)(NCc1cc2ccccc2o1)C(=O)NCc1ccccc1Br (stereo not drawn) [compound 65, 2-[(Benzofuran-2-ylmethyl)-amino]-N-(2-bromo-benzyl)-3-(1H-indol-3-yl)-2-methyl-propionamide]"
8,> 10000,"CC(Cc1c[nH]c2ccccc12)(NCc1cc2ccccc2o1)C(=O)NC1(CO)CCCC1 (stereo not drawn) [compound 144, 2-[(Benzofuran-2-ylmethyl)-amino]-N-(1-hydroxymethyl-cyclopentyl)-3-(1H-indol-3-yl)-2-methyl-propionamide]"
9,> 10000,"CN1CCCC1CCNC(=O)C(C)(Cc1c[nH]c2ccccc12)NCc1cc2ccccc2o1 (stereo not drawn) [compound 52, 2-[(Benzofuran-2-ylmethyl)-amino]-3-(1H-indol-3-yl)-2-methyl-N-[2-(1-methyl-pyrrolidin-2-yl)-ethyl]-propionamide]"
10,55,"CC(Cc1c[nH]c2ccccc12)(NCc1cc2ccccc2o1)C(=O)NCc1ccc(F)c(Cl)c1 (stereo not drawn) [compound 191, 2-[(Benzofuran-2-ylmethyl)-amino]-N-(3-chloro-4-fluoro-benzyl)-3-(1H-indol-3-yl)-2-methyl-propionamide]"
11,3760,"CC(Cc1c[nH]c2ccccc12)(NCc1cc2ccccc2o1)C(=O)NCC1(c2cccnc2)CCC1 (stereo not drawn) [compound 159, 2-[(Benzofuran-2-ylmethyl)-amino]-3-(1H-indol-3-yl)-2-methyl-N-(1-pyridin-3-yl-cyclobutylmethyl)-propionamide]"
12,3590,"CC(NC(=O)C(C)(Cc1c[nH]c2ccccc12)NCc1cc2ccccc2o1)C1=CCCO1 (stereo not drawn) [compound 146, 2-[(Benzofuran-2-ylmethyl)-amino]-N-[1-(4,5-dihydro-furan-2-yl)-ethyl]-3-(1H-indol-3-yl)-2-methyl-propionamide]"
13,6740,"CC(Cc1c[nH]c2ccccc12)(NCc1cc2ccccc2o1)C(=O)NC1(CN2CCCCC2)CCCCC1 (stereo not drawn) [compound 89, 2-[(Benzofuran-2-ylmethyl)-amino]-3-(1H-indol-3-yl)-2-methyl-N-(1-piperidin-1-ylmethyl-cyclohexyl)-propionamide]"

row,Molecule,IC50 [nM]
1,"CC(Cc1c[nH]c2ccccc12)(NCc1cc2ccccc2o1)C(=O)NCC1CCCCC1O (stereo not drawn) [compound 49, 2-[(Benzofuran-2-ylmethyl)-amino]-N (2-hydroxy-cyclohexylmethyl)-3-(1H-indol-3-yl)-2-methyl-propionamide]",1550

# From patent US6472418B1, “Non-peptide NK1 receptors antagonists” (Warner-Lambert Company, priority 1998, dated 2002)
